From patent US10538512B2, “Aminoacylindazole immunomodulators for treatment of autoimmune diseases” (The Rockefeller University, priority 2016, dated 2020) come the findings set out here.

Structures are written as SMILES. Where only a bound is given, the exact number is not on record here.

In the test the target is T1, Human FXIIa (Homo sapiens, UniProt P00748).
T1 construct: active coagulation factor XII (FXIIa); purchased Enzyme Research Labs
T1 sequence (P00748 373-615 limits assumed): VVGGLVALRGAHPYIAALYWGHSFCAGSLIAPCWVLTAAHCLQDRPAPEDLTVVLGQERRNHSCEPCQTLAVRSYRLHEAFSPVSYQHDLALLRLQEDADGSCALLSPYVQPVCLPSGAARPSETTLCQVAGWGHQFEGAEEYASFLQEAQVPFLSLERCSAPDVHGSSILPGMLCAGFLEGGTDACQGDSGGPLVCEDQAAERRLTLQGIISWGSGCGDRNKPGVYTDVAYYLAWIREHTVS
T1 sequence (P00748 20-372 partner limits assumed): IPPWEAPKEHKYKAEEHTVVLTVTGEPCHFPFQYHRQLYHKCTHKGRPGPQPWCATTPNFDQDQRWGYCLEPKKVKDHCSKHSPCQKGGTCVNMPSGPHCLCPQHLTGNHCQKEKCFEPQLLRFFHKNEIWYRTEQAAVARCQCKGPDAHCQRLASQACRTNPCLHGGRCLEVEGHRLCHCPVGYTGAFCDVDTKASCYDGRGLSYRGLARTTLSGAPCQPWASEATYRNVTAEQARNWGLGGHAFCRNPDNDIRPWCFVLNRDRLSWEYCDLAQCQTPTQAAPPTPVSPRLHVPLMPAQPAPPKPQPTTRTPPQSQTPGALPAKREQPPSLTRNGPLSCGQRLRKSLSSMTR
Nature of the test: Factor XIIa (FXIIa) inhibitory activity, chromogenic substrate assay. Type of test: biochemical. The note with it: Human FXIIa 12.5 nM, Pefachrome XIIa 400 μM, 10 min preincubation. On the procedure: Factor XIIa (FXIIa) Inhibitory Activity:
In a 96-well clear bottom plate, 80 μl of assay buffer was added to each well. Assay buffer consists of 0.5× Hank's Balanced Salt Solution (Invitrogen), buffered with 25 mM HEPES pH 7.4 (Invitrogen) and 0.5× Tris-buffered saline with Tween-20 0.05% (Santa Cruz Biotechnology). Test compounds were first dissolved in DMSO (Sigma) and then 4 μl were added to test wells containing assay buffer. Serial dilutions using an automated multi-channel pipette were used to generate a concentration range of approximately 1-100 μM. […] 80 μl of this enzyme solution was added to the assay wells. The enzyme/compound mixtures were incubated for 10 minutes at room temperature. Chromogenic substrate (Pefachrome XIIa; Enzyme Research Labs) was added to assay wells at a final concentration of 400 μM. The assay plate was spun for 1 minute at 1500 g and then read at 37° C. in a SpectraMax M2 plate reader (λ=405 nm). Activity was quantified as the rate of change in absorbance, which corresponds to the rate of substrate cleavage.
Compound `Nc1c2c(nn1C(=O)[C@@H]1CCNc3ccc(Cl)cc31)CC[C@H](O)C2` (single isomer, unassigned) [Example 144, ((5S*)-3-amino-5-hydroxy-4,5,6,7-tetrahydroindazol-2-yl)((4R*)-6-chloro-1,2,3,4-tetrahydroquinolin-4-yl)methanone] displayed an IC50 of 9 µM.

Regarding `Nc1nn(C(=O)[C@@H]2CCNc3ccc(Cl)cc32)c2c1C[C@@H](O)CC2` (single isomer, unassigned) [Example 145, ((5S*)-3-amino-5-hydroxy-4,5,6,7-tetrahydroindazol-1-yl)((4R*)-6-chloro-1,2,3,4-tetrahydroquinolin-4-yl)methanone], the half-inhibitory concentration (IC50) was over 80 µM.

As to `Nc1nn(C(=O)[C@H]2CCNc3ccc(Cl)cc32)c2c1C[C@@H](O)CC2` (single isomer, unassigned) [Example 146, ((5S*)-3-amino-5-hydroxy-4,5,6,7-tetrahydroindazol-1-yl)((4S*)-6-chloro-1,2,3,4-tetrahydroquinolin-4-yl)methanone], the IC50 was over 80 µM.

`Nc1c2c(nn1C(=O)[C@@H]1CCNc3ccc(Cl)cc31)CC[C@@H](O)C2` (single isomer, unassigned) [Example 147, ((5R*)-3-amino-5-hydroxy-4,5,6,7-tetrahydroindazol-2-yl)((4R*)-6-chloro-1,2,3,4-tetrahydroquinolin-4-yl)methanone] yielded an IC50 of 33 µM.

`Nc1nn(C(=O)[C@@H]2CCNc3ccc(Cl)cc32)c2c1C[C@H](O)CC2` (single isomer, unassigned) [Example 149, ((5R*)-3-amino-5-hydroxy-4,5,6,7-tetrahydroindazol-1-yl)((4R*)-6-chloro-1,2,3,4-tetrahydroquinolin-4-yl)methanone] came in with a half-maximal inhibitory concentration (IC50) of over 40 µM.

`Nc1nn(C(=O)[C@H]2CCNc3ccc(Cl)cc32)c2c1C[C@H](O)CC2` (single isomer, unassigned) [Example 150, ((5R*)-3-amino-5-hydroxy-4,5,6,7-tetrahydroindazol-1-yl)((4S*)-6-chloro-1,2,3,4-tetrahydroquinolin-4-yl)methanone] displayed a half-inhibitory concentration (IC50) of 23 µM.

In turn, `Nc1c2c(nn1C(=O)C1CCNc3ccc(F)cc31)CCC(F)(F)C2` (single isomer, unassigned) [Example 174, (R*)-(3-amino-5,5-difluoro-4,5,6,7-tetrahydroindazol-2-yl)(6-fluoro-1,2,3,4-tetrahydroquinolin-4-yl)methanone] came in with an IC50 of over 80 µM.

Consider `CO[C@H]1CCc2nn(C(=O)[C@@H]3CCNc4ccc(F)cc43)c(N)c2C1` (single isomer, unassigned) [Example 176, ((5S*)-3-amino-5-methoxy-4,5,6,7-tetrahydroindazol-2-yl)((4R*)-6-fluoro-1,2,3,4-tetrahydroquinolin-4-yl)methanone], for which the IC50 was over 100 µM.

On to `CO[C@@H]1CCc2nn(C(=O)[C@H]3CCNc4ccc(F)cc43)c(N)c2C1` (single isomer, unassigned) [Example 179, ((5R*)-3-amino-5-methoxy-4,5,6,7-tetrahydroindazol-2-yl)((4S*)-6-fluoro-1,2,3,4-tetrahydroquinolin-4-yl)methanone], for which the midpoint of inhibition, the IC50, lay at 28 µM.

On to `Nc1c2c(nn1C(=O)[C@@H]1CCNc3ccc(F)cc31)C[C@@H](O)CC2` (single isomer, unassigned) [Example 182, ((6S*)-3-amino-6-hydroxy-4,5,6,7-tetrahydroindazol-2-yl)((4R*)-6-fluoro-1,2,3,4-tetrahydroquinolin-4-yl)methanone], for which the IC50 is over 100 µM.

`Nc1c2c(nn1C(=O)[C@@H]1CCNc3ccc(F)cc31)C[C@H](O)CC2` (single isomer, unassigned) [Example 184, ((6R*)-3-amino-6-hydroxy-4,5,6,7-tetrahydroindazol-2-yl)((4R*)-6-fluoro-1,2,3,4-tetrahydroquinolin-4-yl)methanone]: the IC50 was over 100 µM.

For the compound `Nc1c2c(nn1C(=O)C1CCNc3ccc(F)cc31)CCC(NC(=O)OCc1ccccc1)C2` (single isomer, unassigned) [Example 186, benzyl (5R*)-3-amino-2-(6-fluoro-1,2,3,4-tetrahydroquinoline-4-carbonyl)-4,5,6,7-tetrahydro-2H-indazol-5-ylcarbamate], the IC50 was found to be 2.5 µM.

In the case of `Nc1nn(C(=O)C2CCNc3ccc(F)cc32)c2c1CC(NC(=O)OCc1ccccc1)CC2` (single isomer, unassigned) [Example 191, benzyl N-[(5S*)-3-amino-1-[(6-fluoro-1,2,3,4-tetrahydroquinolin-4-yl)carbonyl]-4,5,6,7-tetrahydro-1H-indazol-5-yl]carbamate], the IC50 was over 55 µM.

`Cc1cccc2c1NCCC2C(=O)n1nc2c(c1N)C=CCC2` (single isomer, unassigned) [Example 194, (R*)-(3-amino-6,7-dihydroindazol-2-yl)(8-methyl-1,2,3,4-tetrahydroquinolin-4-yl)methanone] showed an IC50 of 7 µM.

`Cc1cccc2c1NCCC2C(=O)n1nc2c(c1N)C=CCC2` (single isomer, unassigned) [Example 195, (S*)-(3-amino-6,7-dihydroindazol-2-yl)(8-methyl-1,2,3,4-tetrahydroquinolin-4-yl)methanone] yielded a concentration for half-maximal inhibition (IC50) of 0.04 µM.

In the case of `Cc1cccc2c1NCC[C@@H]2C(=O)n1nc2c(c1N)CC[C@@H](O)C2` (single isomer, unassigned) [Example 199, ((6R*)-3-amino-6-hydroxy-4,5,6,7-tetrahydroindazol-2-yl)((4S*)-8-methyl-1,2,3,4-tetrahydroquinolin-4-yl)methanone], the half-maximal inhibitory concentration (IC50) was 0.04 µM.

Take `Cc1cccc2c1NCC[C@H]2C(=O)n1nc2c(c1N)CC[C@@H](O)C2` (single isomer, unassigned) [Example 200, ((6R*)-3-amino-6-hydroxy-4,5,6,7-tetrahydroindazol-2-yl)((4R*)-8-methyl-1,2,3,4-tetrahydroquinolin-4-yl)methanone]: half-maximal inhibition (IC50) was put at 3.3 µM.

`Cc1cccc2c1NCC[C@@H]2C(=O)n1nc(N)c2c1C[C@H](O)CC2` (single isomer, unassigned) [Example 201, ((6R*)-3-amino-6-hydroxy-4,5,6,7-tetrahydroindazol-1-yl)((4S*)-8-methyl-1,2,3,4-tetrahydroquinolin-4-yl)methanone] returned an IC50 of over 150 µM.

Compound `Cc1cccc2c1NCC[C@H]2C(=O)n1nc(N)c2c1C[C@H](O)CC2` (single isomer, unassigned) [Example 202, ((6R*)-3-amino-6-hydroxy-4,5,6,7-tetrahydroindazol-1-yl)((4R*)-8-methyl-1,2,3,4-tetrahydroquinolin-4-yl)methanone] gave an IC50 of over 175 µM.

Compound `Nc1c2c(nn1C(=O)[C@H]1CCNc3c(Cl)cccc31)CC[C@@H](O)C2` (single isomer, unassigned) [Example 204, ((5R*)-3-amino-5-hydroxy-4,5,6,7-tetrahydroindazol-2-yl)((4S*)-8-chloro-1,2,3,4-tetrahydroquinolin-4-yl)methanone] gave an IC50 of 0.04 µM.

For the compound `Nc1nn(C(=O)C2CCNc3c(Cl)cccc32)c2c1CC(O)CC2` (single isomer, unassigned) [Example 205, ((5R*)-3-amino-5-hydroxy-4,5,6,7-tetrahydroindazol-1-yl)(8-chloro-1,2,3,4-tetrahydroquinolin-4-yl)methanone], the IC50 is over 100 µM.

As to `Nc1c2c(nn1C(=O)[C@@H]1CCNc3c(Cl)cccc31)C[C@@H](O)CC2` (single isomer, unassigned) [Example 206, ((6S*)-3-amino-6-hydroxy-4,5,6,7-tetrahydroindazol-2-yl)((4R*)-8-chloro-1,2,3,4-tetrahydroquinolin-4-yl)methanone], the IC50 was 2.8 µM.

In the case of `Nc1c2c(nn1C(=O)[C@H]1CCNc3c(Cl)cccc31)C[C@@H](O)CC2` (single isomer, unassigned) [Example 207, ((6S*)-3-amino-6-hydroxy-4,5,6,7-tetrahydroindazol-2-yl)((4S*)-8-chloro-1,2,3,4-tetrahydroquinolin-4-yl)methanone], the IC50 was found to be 0.16 µM.

The compound `Nc1nn(C(=O)C2CCNc3c(Cl)cccc32)c2c1CCC(O)C2` (single isomer, unassigned) [Example 208, ((6S*)-3-amino-6-hydroxy-4,5,6,7-tetrahydroindazol-1-yl)(8-chloro-1,2,3,4-tetrahydroquinolin-4-yl)methanone] displayed an IC50 of over 100 µM.

`Nc1nn(C(=O)[C@H]2CCNc3c(Cl)cccc32)c2c1CC[C@@H](O)C2` (single isomer, unassigned) [Example 211, ((6R*)-3-amino-6-hydroxy-4,5,6,7-tetrahydroindazol-1-yl)((4S*)-8-chloro-1,2,3,4-tetrahydroquinolin-4-yl)methanone] came in with an IC50 of over 100 µM.

One may read the IC50 as the concentration that inhibits the measured activity by half. A higher IC50 goes with weaker potency in that assay.
